Where a name gives a salt, the structure may show the parent alone.
Key:
[1] = test system: Bacillus anthracis; assay type: cell-based
[2] = test system: Yersinia Pestis; assay type: cell-based
[3] = test system: Francisella tularensis; assay type: cell-based
[4] = test system: Clostridium botulinin; assay type: cell-based
[5] = test system: Clostridium perfringens; assay type: cell-based
[6] = test system: Brucella abortis, B milletensis and B suis; assay type: cell-based
[7] = test system: Burkholderia mallei; assay type: cell-based
[8] = test system: B anthracis; settings: cited from earlier work
[9] = test system: anthrax infection; settings: in vivo; cited from earlier work

| Molecule | Suitability against Bacillus anthracis [1] | Suitability against Yersinia Pestis [2] | Suitability against Francisella tularensis [3] | Suitability against Clostridium botulinin [4] | Suitability against Clostridium perfringens [5] | Suitability against Brucella abortis, B milletensis and B suis [6] | Suitability against Burkholderia mallei [7] | Effective against B anthracis in vitro [8] | Efficacy in treatment of anthrax infection, animal models [9] | Sensitivity of naturally occurring anthrax strains [8] |
| --- | --- | --- | --- | --- | --- | --- | --- | --- | --- | --- |
| N[C@@H](C(=O)N[C@@H]1C(=O)N2C(C(=O)O)=C(Cl)CS[C@H]12)c1ccccc1 [Cefaclor, 3-chloro-7-D-(2-phenylglycinamido)-3-cephem-4-carboxylic acid monohydrate] | Yes | Yes | Yes | No | No | No | No | – | – | – |
| Cn1nnnc1SCC1=C(C(=O)O)N2C(=O)[C@@H](NC(=O)[C@H](O)c3ccccc3)[C@H]2SC1 [Cefamandole] | Yes | Yes | Yes | No | No | No | No | – | – | – |
| Cc1nnc(SCC2=C(C(=O)O)N3C(=O)[C@@H](NC(=O)Cn4cnnn4)[C@H]3SC2)s1 [Cefazolin] | Yes | Yes | Yes | – | – | No | No | effective | – | – |
| CO/N=C(\C(=O)N[C@@H]1C(=O)N2C(C(=O)O)=C(COC(N)=O)CS[C@H]12)c1ccco1 [Cefuroxime] | Yes | Yes | Yes | No | No | No | No | – | – | – |
| CC1=C(C(=O)O)N2C(=O)[C@@H](NC(=O)[C@H](N)c3ccccc3)[C@H]2SC1 [Cephalexin Monohydrate] | Yes | Yes | Yes | No | No | No | No | – | – | – |
| CC(=O)OCC1=C(C(=O)O)N2C(=O)[C@@H](NC(=O)Cc3cccs3)[C@H]2SC1 [Cephalothin] | Yes | Yes | Yes | No | No | No | No | – | – | – |
| CCn1nc(C(=O)O)c(=O)c2cc3c(cc21)OCO3 [Cinoxacin] | Yes | Yes | Yes | No | No | No | No | – | – | – |
| CCCCCCCCCC(=O)N[C@@H](Cc1c[nH]c2ccccc12)C(=O)N[C@H](CC(N)=O)C(=O)N[C@@H](CC(=O)O)C(=O)N[C@@H]1C(=O)NCC(=O)N[C@@H](CCCN)C(=O)N[C@@H](CC(=O)O)C(=O)N[C@H](C)C(=O)N[C@@H](CC(=O)O)C(=O)NCC(=O)N[C@H](CO)C(=O)N[C@@H]([C@H](C)CC(=O)O)C(=O)N[C@@H](CC(=O)c2ccccc2N)C(=O)O[C@@H]1C [Daptomycin, N-(1-oxodecyl)-L-tryptophyl-L-asparaginyl-L-A-aspartyl-L-threonylglycyl-L-ornithyl-L-A-aspartyl-D-alanyl-L-A-aspartylglycyl-D-seryl-threo-3-methyl-L-A-glutamyl-G-(2-aminophenyl)-G-oxo-L-A-aminobutanoicacid, E1-lactone] | Yes | No | No | Yes* | Yes** | No | No | – | – | – |
| N[C@@H](C(=O)N[C@@H]1C(=O)N2C(C(=O)O)=C(Cl)CC[C@H]12)c1ccccc1.O [Loracarbef, (6R,7S)-7-[(R)-2-amino-2-phenylacetamido]-3-chloro-8-oxo-1-azabicyclo[4.2.0]oct-2-ene-2-carboxylic acid, monohydrate] | Yes | Yes | Yes | No | No | No | No | – | – | – |
| CN[C@H](CC(C)C)C(=O)N[C@H]1C(=O)N[C@@H](CC(N)=O)C(=O)N[C@H]2C(=O)N[C@H]3C(=O)N[C@H](C(=O)N[C@H](C(=O)O)c4cc(O)cc(O)c4-c4cc3ccc4O)[C@H](O[C@H]3C[C@](C)(N)[C@@H](O)[C@H](C)O3)c3ccc(c(Cl)c3)Oc3cc2cc(c3O[C@@H]2O[C@H](CO)[C@@H](O)[C@H](O)[C@H]2O[C@H]2C[C@](C)(NCc3ccc(-c4ccc(Cl)cc4)cc3)[C@@H](O)[C@H](C)O2)Oc2ccc(cc2Cl)[C@H]1O [Oritavancin, (4″R)-22-O-(3-amino-2,3,6-trideoxy-3-C-methyl-A-L-arabino-hexopyranosyl)-N3″-((4-chloro(1,1′-biphenyl)-4′-yl)methyl)vancomycin] | Yes | No | No | Yes* | Yes** | No | No | – | – | – |
| NC[C@H]1O[C@H](O[C@H]2[C@H](O)[C@@H](O[C@H]3O[C@H](CO)[C@@H](O)[C@H](N)[C@H]3O)[C@H](N)C[C@@H]2N)[C@H](N)C[C@@H]1O [Tobramycin] | Yes | Yes | Yes | No | No | Yes | Yes | – | – | – |
| CN[C@H](CC(C)C)C(=O)N[C@H]1C(=O)N[C@@H](CC(N)=O)C(=O)N[C@H]2C(=O)N[C@H]3C(=O)N[C@H](C(=O)N[C@H](C(=O)O)c4cc(O)cc(O)c4-c4cc3ccc4O)[C@H](O)c3ccc(c(Cl)c3)Oc3cc2cc(c3O[C@@H]2O[C@H](CO)[C@@H](O)[C@H](O)[C@H]2O[C@H]2C[C@](C)(N)[C@H](O)[C@H](C)O2)Oc2ccc(cc2Cl)[C@H]1O [Vancomycin HCl] | Yes | No | No | Yes* | Yes** | No | No | effective | – | – |
| O=C(N[C@H](CO)[C@H](O)c1ccc([N+](=O)[O-])cc1)C(Cl)Cl [chloramphenicol] | – | – | – | – | – | – | – | effective | – | – |
| O=C(O)c1cn(C2CC2)c2cc(N3CCNCC3)c(F)cc2c1=O [ciprofloxacin] | – | – | – | – | – | – | – | – | excellent efficacy | – |
| CC[C@H]1OC(=O)[C@H](C)[C@@H](O[C@H]2C[C@@](C)(OC)[C@@H](O)[C@H](C)O2)[C@H](C)[C@@H](O[C@@H]2O[C@H](C)C[C@H](N(C)C)[C@H]2O)[C@](C)(O)C[C@@H](C)C(=O)[C@H](C)[C@@H](O)[C@]1(C)O [erythromycin] | – | – | – | – | – | – | – | effective | – | – |
| penicillin | – | – | – | – | – | – | – | – | – | sensitive |
